In this experiment the test system is protease. Format: biochemical, Aspergillus sp. MTCC 5102.

“Also recorded” adds a separate entry of the source. Where two headings read alike, the source gives them in different places.

The % inhibition is the relative decrease from the control value, in per cent. Take `O=C(O)CN(CCN(CC(=O)O)CC(=O)O)CC(=O)O` [EDTA, ethylenediamine tetraacetic acid]: the “% inhibition” value is given as 6%, the “Residual specific activity (%)” value turned out to be 94% and the “inhibition of the protease activity (in words)” value (from here on “inhibition … (in words)”) is “not inhibited; also recorded: no inhibition of activity”.

As for `[Cl][Hg][Cl]` [HgCl2, mercuric chloride], the “inhibition … (in words)” value was “not inhibited”. Moreover, where the note is “200 µM”, the “% inhibition” value is recorded as 14% and the “Residual specific activity (%)” value came out at 86%.

Regarding `O=S(=O)(F)Cc1ccccc1` [PMSF, phenylmethylsulfonyl fluoride], the “% inhibition” value was 100%, the “Residual specific activity (%)” value amounted to 0% and the “inhibition … (in words)” value was “totally inhibited; also recorded: inhibition of the activity”.
